Assay results as given in patent publication US20020035061A1, “COMPOSITIONS AND METHODS FOR TREATING INFECTIONS USING CATIONIC PEPTIDES ALONE OR IN COMBINATION WITH ANTIBIOTICS” (priority 1996, published 2002).
Read-outs that look alike come from different tables or passages of the source. Peptide text beside a SMILES is read from it.

Key:
A. calcoaceticus = format: cell-based
S. maltophilia = format: cell-based
E. cloacae = format: cell-based; conditions: E. cloacae strain ECL007
S. aureus [1] = format: cell-based; conditions: for Peptide MIC values: agarose dilution
S. marcescens = format: cell-based; conditions: for Peptide MIC values: agarose dilution, S. marcescens SM82
E. faecalis = format: cell-based
[2] = test system: MSSA (Smith, ATCC # 19640); test: In vivo efficacy, MSSA infection; design: species or system S. aureus; conditions: formulation D, 60 min post-infection, end of eight day observation
P. aeruginosa = format: cell-based; conditions: for Peptide MIC values: agarose dilution
K. pneumoniae = format: cell-based
S. epidermidis = format: cell-based
E. coli = format: cell-based; conditions: for Peptide MIC values: agarose dilution
E. faecium = format: cell-based; conditions: for Peptide MIC values: agarose dilution
[3] = test system: microorganisms with acquired resistance; test: microbe, parasite or virus in culture; format: cell-based; conditions: for Peptide MIC Alone: Ciprofloxacin section
S. pneumoniae = test: Agarose dilution assay (MIC); format: cell-based; conditions: agarose dilution
bacterial isolates = test: microbe, parasite or virus in culture; format: cell-based; conditions: for FIC: peptide + Ciprofloxacin
S. aureus [4] = test: microbe, parasite or virus in culture; format: cell-based

Molecule | MIC (A. calcoaceticus; A. calcoaceticus strain AC001) [µg/mL] | MIC (S. maltophilia; S. maltophilia strain SMA001) [µg/mL] | MIC (E. cloacae) [µg/mL] | MIC (S. marcescens; S. marcescens strain SMS004) [µg/mL] | MIC (E. faecalis; E. faecalis strain EFS004) [µg/mL] | % Survival ([2]; 12 mg/kg ip) [%] | % Survival ([2]; 18 mg/kg ip) [%] | % Survival ([2]; 24 mg/kg ip) [%] | MIC (P. aeruginosa; P. aeruginosa strain PA005) [µg/mL] | MIC (K. pneumoniae; K. pneumoniae strain KP002) [µg/mL] | MIC (E. coli; E. coli strain ECO003) [µg/mL] | MIC (E. faecium; E. faecium strain EFM002) [µg/mL] | MIC (S. aureus [1]; S. aureus strain SA009) [µg/mL] | Peptide MIC values (S. aureus [1]; S. aureus MRSA9) [µg/mL] | Peptide MIC values (S. aureus [1]; S. aureus MRSA13) [µg/mL] | Peptide MIC values (S. aureus [1]; S. aureus MRSA17) [µg/mL] | MIC (S. marcescens; S. marcescens strain SMS003) [µg/mL] | Peptide MIC values (S. marcescens) [µg/mL] | Peptide MIC values (S. pneumoniae; S. pneumoniae 406LE8) [µg/mL] | MIC (P. aeruginosa; P. aeruginosa strain PA004) [µg/mL] | also measured
ILRRWPWWPWRRK [MBI 11B1CN] | 32 | 64 | >128 | >128 | 8 | 0 | 30 | 90 | >128 | 64 | 8 | 2 |  |  |  |  |  |  |  |  | MIC (S. aureus [1]; S. aureus strain SA005): 2 µg/mL; MIC (S. epidermidis; S. epidermidis strain SE001): 2 µg/mL
ILKKWVWWVWRRK [MBI 11F1CN] |  |  | >128 |  | 16 |  |  |  |  | 32 | 8 |  | 2 | 2 | 16 | 2 | >128 | >128 | 128 | 64 | Peptide MIC ([3]; S. aureus, combination with Mupirocin, in µg/mL): 8; MIC (S. marcescens; S. marcescens strain SBSM1): >128 µg/mL; Peptide MIC values (S. pneumoniae; S. pneumoniae 60120): 128 µg/mL; Peptide MIC values (S. pneumoniae; S. pneumoniae ATCC 49619): 64 µg/mL; Peptide MIC values (P. aeruginosa; P. aeruginosa ATCC 27853): 64 µg/mL; Peptide MIC values (P. aeruginosa; P. aeruginosa NCTC 10662): 64 µg/mL; Peptide MIC values (E. coli; E. coli ATCC 25922): 8 µg/mL; Peptide MIC values (E. coli; E. coli NCTC 10418): 2 µg/mL; MIC (E. faecium; E. faecium strain EFM003): 2 µg/mL; Peptide MIC values (E. faecium): 8 µg/mL
ILKKWWWPWRRK [MBI 11G4CN] |  |  | >128 |  |  | 0 | 0 | 20 |  |  |  |  |  |  |  |  | >128 |  |  | >128 | MIC (A. calcoaceticus; A. calcoaceticus strain AC002): 4 µg/mL; MIC (S. maltophilia; S. maltophilia strain SMA002): 64 µg/mL; MIC (S. aureus [1]; S. aureus strain SA004): 1 µg/mL; MIC (E. faecalis; E. faecalis strain EFS002): 32 µg/mL; MIC (K. pneumoniae; K. pneumoniae strain KP001): >128 µg/mL; MIC (S. epidermidis; S. epidermidis strain SE010): 2 µg/mL; MIC (E. coli; E. coli strain ECO005): 32 µg/mL; MIC (E. faecium; E. faecium strain EFM003): 1 µg/mL
CC[C@H](C)[C@H](NC(=O)[C@H](CC(C)C)NC(=O)[C@H](C)NC(=O)[C@@H]1CCCN1C(=O)[C@H](CC(C)C)NC(=O)[C@H](C)NC(=O)[C@@H](NC(=O)[C@@H](NC(=O)[C@@H](NC(=O)[C@@H](NC(=O)[C@H](CCCCN)NC(=O)[C@H](CCCCN)NC(=O)[C@H](CC(C)C)NC(=O)[C@@H](NC(=O)[C@H](CCCCN)NC(=O)[C@@H](NC(=O)[C@H](CC(C)C)NC(=O)[C@H](CC(N)=O)NC(=O)[C@H](CCCCN)NC(=O)[C@@H](NC(=O)[C@H](Cc1ccccc1)NC(=O)[C@H](CO)NC(=O)[C@H](CCCCN)NC(=O)[C@H](Cc1c[nH]c2ccccc12)NC(=O)[C@@H](N)CCCCN)[C@@H](C)CC)[C@@H](C)O)C(C)C)C(C)C)C(C)C)[C@@H](C)O)[C@@H](C)O)C(=O)N[C@@H](CO)C(=O)O [MBI 29A2] (H-KWKSFIKNLTKVLKKVVTTALPALIS-OH; N-terminus and C-terminus assumed) |  |  |  |  |  |  |  |  |  |  |  |  |  |  |  |  |  |  |  |  | Ciprofloxacin MIC + Peptide ([3]; P. aeruginosa PA41): 2 µg/mL; Peptide MIC + Ciprofloxacin ([3]; P. aeruginosa PA41): 4 µg/mL; Peptide MIC Alone ([3]; P. aeruginosa PA41): 8 µg/mL; Ciprofloxacin MIC + Peptide ([3]; P. aeruginosa PA77): 1 µg/mL; Peptide MIC + Ciprofloxacin ([3]; P. aeruginosa PA77): 8 µg/mL; Peptide MIC Alone ([3]; P. aeruginosa PA77): 16 µg/mL; Ciprofloxacin MIC + Peptide (bacterial isolates; P. aeruginosa PA24): 16 µg/mL; Peptide MIC + Ciprofloxacin (bacterial isolates; P. aeruginosa PA24): 8 µg/mL; Ciprofloxacin MIC + Peptide (bacterial isolates; S. aureus SA10): 0.5 µg/mL; Peptide MIC + Ciprofloxacin (bacterial isolates; S. aureus SA10): 2 µg/mL; Ciprofloxacin MIC + Peptide (bacterial isolates; S. aureus SA93): 8 µg/mL; Peptide MIC + Ciprofloxacin (bacterial isolates; S. aureus SA93): 0.5 µg/mL; FIC (bacterial isolates; P. aeruginosa PA24): 0.63; FIC (bacterial isolates; S. aureus SA10): 0.52; FIC (bacterial isolates; S. aureus SA93): 0.50; Ciprofloxacin MIC + Peptide (S. aureus [4]; S. aureus SA10): 0.5 µg/mL; Peptide MIC + Ciprofloxacin (S. aureus [4]; S. aureus SA10): 2 µg/mL; Ciprofloxacin MIC + Peptide (S. aureus [4]; S. aureus SA25): 0.5 µg/mL; Peptide MIC + Ciprofloxacin (S. aureus [4]; S. aureus SA25): 1 µg/mL
ILWPWWPWRRK [MBI 11B8CN] | >128 |  | >128 |  |  | 0 | 10 |  | >128 |  |  |  | 4 | 2 | 32 | 4 | >128 | >128 | >128 |  | MIC (S. maltophilia; S. maltophilia strain SMA002): 128 µg/mL; Peptide MIC values (S. pneumoniae; S. pneumoniae 60120): >128 µg/mL; Peptide MIC values (S. pneumoniae; S. pneumoniae ATCC 49619): 128 µg/mL; MIC (E. faecalis; E. faecalis strain EFS002): 32 µg/mL; Peptide MIC values (P. aeruginosa; P. aeruginosa ATCC 27853): >128 µg/mL; Peptide MIC values (P. aeruginosa; P. aeruginosa NCTC 10662): >128 µg/mL; MIC (K. pneumoniae; K. pneumoniae strain KP001): >128 µg/mL; MIC (S. epidermidis; S. epidermidis strain SE002): 4 µg/mL; MIC (E. coli; E. coli strain ECO002): 16 µg/mL; Peptide MIC values (E. coli; E. coli ATCC 25922): 32 µg/mL; Peptide MIC values (E. coli; E. coli NCTC 10418): 4 µg/mL; MIC (E. faecium; E. faecium strain EFM001): 16 µg/mL; Peptide MIC values (E. faecium): 8 µg/mL
IKKWPWWPWRRK [MBI 11G2CN] |  | >128 | >128 | >128 | 16 | 10 | 0 | 40 |  | 128 | 16 | 4 | 2 |  |  |  |  |  |  | >128 | 
